The record followed here is BindingDB's records for doi:10.1021/jm501787c (Duquesne University, 2015).

Bounds are passed on as bounds.

Assay [1] is described as follows: Binding affinity to human RFC expressed in Chinese hamster PC43-10 cells assessed as cell growth inhibition after 96 hrs by CellTiter-Blue assay. In general terms: Resazurin is reduced to fluorescent resorufin, in cell work by metabolically active cells.
Assay [2] can be described thus: Binding affinity to human FRalpha expressed in Chinese hamster RT16 cells assessed as cell growth inhibition after 96 hrs by CellTiter-Blue assay.
Assay [3] can be described thus: Binding affinity to human PCFT expressed in Chinese hamster R2/PCFT4 cells assessed as cell growth inhibition after 96 hrs by CellTiter-Blue assay.

Take `Nc1nc2[nH]cc(CCCCCCc3ccc(C(=O)N[C@@H](CCC(=O)O)C(=O)O)s3)c2c(=O)[nH]1`: the IC50 in assay [1], in assay [2] and in assay [3] was above 1000 nM each time.

`Nc1nc2[nH]cc(Cc3ccc(C(=O)N[C@@H](CCC(=O)O)C(=O)O)s3)c2c(=O)[nH]1`: the IC50 in assay [1], in assay [2] and in assay [3] was above 1000 nM in each case.

Regarding `Nc1nc2[nH]cc(CCc3ccc(C(=O)N[C@@H](CCC(=O)O)C(=O)O)s3)c2c(=O)[nH]1`, the values for the IC50 in assay [1], in assay [2] and in assay [3] were 60 nM, 550 nM and 80 nM, respectively.

Turning to `Nc1nc2[nH]cc(CCCCc3ccc(C(=O)N[C@@H](CCC(=O)O)C(=O)O)s3)c2c(=O)[nH]1`, the figures for the IC50 in assay [1], in assay [2] and in assay [3] were 38 nM, 49 nM and 141 nM, respectively.

Take `Nc1nc2[nH]cc(CCCCCc3ccc(C(=O)N[C@@H](CCC(=O)O)C(=O)O)s3)c2c(=O)[nH]1`: the figures for the IC50 in assay [1], in assay [2] and in assay [3] were 243 nM, 46 nM and 57 nM, respectively.

As to `Nc1nc2[nH]cc(CCCc3ccc(C(=O)N[C@@H](CCC(=O)O)C(=O)O)s3)c2c(=O)[nH]1`, the IC50 in assay [1] was determined as 116 nM; in assay [2], 109 nM; in assay [3], 312 nM.

Take `Nc1nc2[nH]c(CCCCc3ccc(C(=O)N[C@@H](CCC(=O)O)C(=O)O)s3)cc2c(=O)[nH]1` [(S)-2-({5-[4-(2-Amino-4-oxo-4,7-dihydro-3H-pyrrolo[2,3-d]-pyrimidin-6-yl)-butyl]-thiophene-2-carbonyl}-amino)-pentanedioicAcid]: the IC50 in assay [1] is above 1000 nM; in assay [2], 1.8 nM.

As usually defined, the IC50 is the concentration that inhibits the measured activity by half.
